Test results reported in PubChem BioAssay AID1745844 (Carcinogenic Potency Database (CPDB), 2022).
Activity calls are given as the source filed them. How the calls were made is not given here.

System: rodent lifetime carcinogenesis bioassay, tumor incidence TD50
Test: chronic cancer bioassays in animals – CPDB, compiled studies (AID 1745844)

With CC(O)CN(C)N=O (stereo unspecified) the carcinogen call (rat, strain F344/DuCrj, males, in drinking water, site: liver, lesion: one or several types, types not named, dosed 40 weeks, study length 78 weeks) was “negative (inactive)”, the TD50 (rat, strain Fischer 344, females, in drinking water, site: esophagus, lesion: carcinoma, dosed 30 weeks, study length 75 weeks) was 0.408 mg/kg/day and the TD50 (rat, strain Fischer 344, females, in drinking water, site: esophagus, lesion: several types, types named in the paper, dosed 30 weeks, study length 75 weeks) was 0.105 mg/kg/day. The TD50 (rat, strain Fischer 344, females, in drinking water, site: liver, lesion: hepatocellular carcinoma, dosed 30 weeks, study length 75 weeks) was 0.895 mg/kg/day, the TD50 (rat, strain Fischer 344, females, in drinking water, site: liver, lesion: neoplastic nodule, dosed 30 weeks, study length 75 weeks) was 2.54 mg/kg/day and the TD50 (rat, strain Fischer 344, females, in drinking water, site: liver, lesion: several types, types named in the paper, dosed 30 weeks, study length 75 weeks) was 0.798 mg/kg/day. It also gave a TD50 (rat, strain Fischer 344, females, in drinking water, site: lung, lesion: several types, types named in the paper, dosed 30 weeks, study length 75 weeks) of 0.408 mg/kg/day, a TD50 (rat, strain Fischer 344, females, in drinking water, site: nasal cavity, lesion: several types, types named in the paper, dosed 30 weeks, study length 75 weeks) of 0.0486 mg/kg/day and a TD50 (rat, strain Fischer 344, males, in drinking water, site: esophagus, lesion: several types, types named in the paper, dosed 30 weeks, study length 75 weeks) of 0.17 mg/kg/day. It also gave a TD50 (rat, strain Fischer 344, males, in drinking water, site: nasal cavity, lesion: several types, types named in the paper, dosed 30 weeks, study length 75 weeks) of 0.0442 mg/kg/day.
Nc1ccc(NCCO)c([N+](=O)[O-])c1 showed a TD50 (mouse, strain B6C3F1, females, by gavage, site: any site (literature study), lesion: several types, types named in the paper, dosed 104 weeks, study length 105 weeks) of 292 mg/kg/day, a TD50 (mouse, strain B6C3F1, females, by gavage, site: forestomach, lesion: squamous-cell papilloma, dosed 104 weeks, study length 105 weeks) of 721 mg/kg/day and a TD50 (mouse, strain B6C3F1, females, by gavage, site: lung, lesion: alveolar/bronchiolar adenoma + alveolar/bronchiolar carcinoma, dosed 104 weeks, study length 105 weeks) of 4670 mg/kg/day. It also gave a TD50 (mouse, strain B6C3F1, males, by gavage, site: liver, lesion: hepatocellular adenoma + hepatocellular carcinoma + neoplastic nodule, dosed 104 weeks, study length 105 weeks) of 427 mg/kg/day, a TD50 (mouse, strain B6C3F1, males, by gavage, site: liver, lesion: hepatocellular adenoma + hepatocellular carcinoma, dosed 104 weeks, study length 105 weeks) of 427 mg/kg/day and a TD50 (mouse, strain B6C3F1, males, by gavage, site: lung, lesion: alveolar/bronchiolar adenoma + alveolar/bronchiolar carcinoma, dosed 104 weeks, study length 105 weeks) of 1750 mg/kg/day. For the same compound, the TD50 (rat, strain Fischer 344, females, by gavage, site: any site (literature study), lesion: several types, types named in the paper, dosed 105 weeks, study length 106 weeks) was 4870 mg/kg/day (inactive), the TD50 (rat, strain Fischer 344, males, by gavage, site: any site (literature study), lesion: several types, types named in the paper, dosed 105 weeks, study length 106 weeks) was 500 mg/kg/day (inactive) and the TD50 (rat, strain Fischer 344, males, by gavage, site: liver, lesion: hepatocellular adenoma + hepatocellular carcinoma + neoplastic nodule, dosed 105 weeks, study length 106 weeks) was 1.51e+06 mg/kg/day.
[N-]=[N+]=[N-] was tested, and the TD50 (rat, strain Charles River CD (Sprague-Dawley), females, in feed, site: mammary gland, lesion: one or several types, types not named, dosed 78 weeks, study length 104 weeks) was 3.01 mg/kg/day, the TD50 (rat, strain Charles River CD (Sprague-Dawley), females, in feed, site: pituitary gland, lesion: chromophobe adenoma, dosed 78 weeks, study length 104 weeks) was 16.1 mg/kg/day (inactive) and the carcinogen call (rat, strain Charles River CD (Sprague-Dawley), males, in feed, site: pituitary gland, lesion: chromophobe adenoma, dosed 78 weeks, study length 104 weeks) was “negative (inactive)”. For the same compound, the TD50 (rat, strain Fischer 344, females, by gavage, site: any site (literature study), lesion: several types, types named in the paper, dosed 103 weeks, study length 104 weeks) was 19.1 mg/kg/day (inactive), the TD50 (rat, strain Fischer 344, males, by gavage, site: any site (literature study), lesion: several types, types named in the paper, dosed 103 weeks, study length 104 weeks) was 8.26 mg/kg/day and the TD50 (rat, strain Fischer 344, males, by gavage, site: testis, lesion: interstitial-cell adenoma, bilateral + interstitial-cell adenoma, dosed 103 weeks, study length 104 weeks) was 3.79 mg/kg/day (inactive).
With COc1cc2c(c3c1c(=O)c1ccccc1n3C)C=CC(C)(C)O2 the TD50 (mouse, strain B6C3F1, females, i.p., site: liver, lesion: hepatocellular adenoma + hepatocellular carcinoma + neoplastic nodule, dosed 48 weeks, study length 78 weeks) was 2.46 mg/kg/day, the TD50 (mouse, strain B6C3F1, females, i.p., site: lung, lesion: alveolar/bronchiolar adenoma + alveolar/bronchiolar carcinoma, dosed 48 weeks, study length 78 weeks) was 2.46 mg/kg/day and the TD50 (rat, strain Sprague-Dawley, females, i.p., site: any site (literature study), lesion: several types, types named in the paper, dosed 52 weeks, study length 80 weeks) was 0.568 mg/kg/day. The TD50 (rat, strain Sprague-Dawley, females, i.p., site: liver, lesion: hepatocellular adenoma + hepatocellular carcinoma + neoplastic nodule, dosed 52 weeks, study length 80 weeks) was 8.75 mg/kg/day, the TD50 (rat, strain Sprague-Dawley, females, i.p., site: mammary gland + peritoneum, lesion: adenocarcinoma, NOS + cystadenocarcinoma, NOS + cystadenoma, NOS + fibroadenoma + papillary adenocarcinoma + fibrosarcoma + mesothel, dosed 52 weeks, study length 80 weeks) was 0.873 mg/kg/day and the TD50 (rat, strain Sprague-Dawley, females, i.p., site: mammary gland, lesion: adenocarcinoma, NOS + cystadenocarcinoma, NOS + cystadenoma, NOS + fibroadenoma + papillary adenocarcinoma, dosed 52 weeks, study length 80 weeks) was 0.395 mg/kg/day. The TD50 (rat, strain Sprague-Dawley, females, i.p., site: mammary gland, lesion: fibroadenoma, dosed 52 weeks, study length 80 weeks) was 0.455 mg/kg/day, the TD50 (rat, strain Sprague-Dawley, females, i.p., site: peritoneum, lesion: fibrosarcoma + mesothelioma, malignant + sarcoma, NOS, dosed 52 weeks, study length 80 weeks) was 5.86 mg/kg/day and the TD50 (rat, strain Sprague-Dawley, females, i.p., site: peritoneum, lesion: sarcoma, NOS, dosed 52 weeks, study length 80 weeks) was 11.4 mg/kg/day. For the same compound, the TD50 (rat, strain Sprague-Dawley, males, i.p., site: adrenal gland, lesion: cortical adenoma, dosed 51 weeks, study length 80 weeks) was 1.85 mg/kg/day, the TD50 (rat, strain Sprague-Dawley, males, i.p., site: all sites + bone + peritoneum + vertebra, lesion: osteosarcoma + fibrosarcoma + mesothelioma, NOS + mesothelioma, malignant + sarcoma, NOS, dosed 51 weeks, study length 80 weeks) was 0.497 mg/kg/day and the TD50 (rat, strain Sprague-Dawley, males, i.p., site: all sites, lesion: osteosarcoma, dosed 51 weeks, study length 80 weeks) was 0.698 mg/kg/day. It also gave a TD50 (rat, strain Sprague-Dawley, males, i.p., site: any site (literature study), lesion: several types, types named in the paper, dosed 51 weeks, study length 80 weeks) of 0.227 mg/kg/day, a TD50 (rat, strain Sprague-Dawley, males, i.p., site: bone + vertebra, lesion: osteosarcoma, dosed 51 weeks, study length 80 weeks) of 1.03 mg/kg/day and a TD50 (rat, strain Sprague-Dawley, males, i.p., site: liver, lesion: hepatocellular adenoma + hepatocellular carcinoma + neoplastic nodule, dosed 51 weeks, study length 80 weeks) of 2.11 mg/kg/day. For the same compound, the TD50 (rat, strain Sprague-Dawley, males, i.p., site: peritoneum, lesion: fibrosarcoma + mesothelioma, NOS + mesothelioma, malignant + sarcoma, NOS, dosed 51 weeks, study length 80 weeks) was 1.49 mg/kg/day.
Compound C=C1C(C)(C)[C@@]2(Cl)C(Cl)[C@]1(Cl)C(Cl)(Cl)C2(Cl)Cl (stereo partly specified) has a TD50 (mouse, strain B6AKF1, males, oral dosing, site: any site (literature study), lesion: several types, types named in the paper, dosed 79 weeks, study length 79 weeks) of 0.75 mg/kg/day, a TD50 (mouse, strain B6AKF1, males, oral dosing, site: liver, lesion: hepatoma, dosed 79 weeks, study length 79 weeks) of 0.644 mg/kg/day and a TD50 (mouse, strain B6C3F1, females, oral dosing, site: any site (literature study), lesion: several types, types named in the paper, dosed 79 weeks, study length 79 weeks) of 3.37 mg/kg/day. For the same compound, the TD50 (mouse, strain B6C3F1, females, oral dosing, site: lung, lesion: adenoma, dosed 79 weeks, study length 79 weeks) was 10.7 mg/kg/day, the TD50 (mouse, strain B6C3F1, males, oral dosing, site: all sites, lesion: reticulum-cell sarcoma, dosed 79 weeks, study length 79 weeks) was 1.41 mg/kg/day and the TD50 (mouse, strain B6C3F1, males, oral dosing, site: any site (literature study), lesion: several types, types named in the paper, dosed 79 weeks, study length 79 weeks) was 0.75 mg/kg/day. For the same compound, the TD50 (mouse, strain B6C3F1, males, oral dosing, site: liver, lesion: hepatoma, dosed 79 weeks, study length 79 weeks) was 4 mg/kg/day and the TD50 (mouse, strain B6C3F1, males, oral dosing, site: lung, lesion: adenoma, dosed 79 weeks, study length 79 weeks) was 8.29 mg/kg/day.
With CCCN(N)C=O the TD50 (mouse, strain Swiss albino, females, in drinking water, site: gall bladder, lesion: adenoma, dosed 75 weeks, study length 79 weeks) was 497 mg/kg/day, the TD50 (mouse, strain Swiss albino, females, in drinking water, site: gall bladder, lesion: several types, types named in the paper, dosed 75 weeks, study length 79 weeks) was 444 mg/kg/day and the TD50 (mouse, strain Swiss albino, females, in drinking water, site: liver, lesion: several types, types named in the paper, dosed 75 weeks, study length 79 weeks) was 215 mg/kg/day. It also gave a TD50 (mouse, strain Swiss albino, females, in drinking water, site: lung, lesion: several types, types named in the paper, dosed 75 weeks, study length 79 weeks) of 8.74 mg/kg/day, a TD50 (mouse, strain Swiss albino, males, in drinking water, site: lung, lesion: several types, types named in the paper, dosed 51 weeks, study length 61 weeks) of 8.84 mg/kg/day and a TD50 (mouse, strain Swiss albino, males, in drinking water, site: preputial gland, lesion: several types, types named in the paper, dosed 51 weeks, study length 61 weeks) of 60.4 mg/kg/day. The TD50 (mouse, strain Swiss albino, males, in drinking water, site: preputial gland, lesion: squamous-cell carcinoma, dosed 51 weeks, study length 61 weeks) was 75.7 mg/kg/day.
